Like-named read-outs stand apart in the source and are kept apart here.
Molecular target: T1, H. sapiens SLC2A9 variant 2 (GLUT9B) (Homo sapiens, UniProt Q9NRM0)
T1 sequence (Q9NRM0 1-511 isoform Q9NRM0-2): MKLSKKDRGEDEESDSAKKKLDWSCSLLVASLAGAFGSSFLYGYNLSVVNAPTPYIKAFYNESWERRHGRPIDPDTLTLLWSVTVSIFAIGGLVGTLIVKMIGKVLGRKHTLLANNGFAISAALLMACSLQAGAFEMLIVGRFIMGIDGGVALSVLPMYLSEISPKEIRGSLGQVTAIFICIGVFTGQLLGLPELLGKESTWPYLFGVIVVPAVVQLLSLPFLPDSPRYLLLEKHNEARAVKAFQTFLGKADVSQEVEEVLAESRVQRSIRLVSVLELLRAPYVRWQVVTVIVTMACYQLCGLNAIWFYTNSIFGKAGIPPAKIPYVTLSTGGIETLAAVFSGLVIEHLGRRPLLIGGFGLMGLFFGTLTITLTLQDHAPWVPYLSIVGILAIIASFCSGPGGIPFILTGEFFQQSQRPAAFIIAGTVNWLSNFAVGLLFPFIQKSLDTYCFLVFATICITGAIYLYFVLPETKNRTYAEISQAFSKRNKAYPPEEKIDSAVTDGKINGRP
Experiment: GLUT9 functional assay: uric acid uptake in HEK293T cells, allantoin formation by MS/MS as proxy of GLUT9B inhibition
Format: cell-based
Conditions: HEK293T cells stably expressing GLUT9B and transiently A. oryzae uricase, uric acid 0.3 mM, 37° C.
Method in brief: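 Inhibition of GLUT9B-mediated urate uptake read as reduced allantoin formation, measured by MS/MS against allantoin standards in HEK293T matrix with log-logistic fitting. Stable GLUT9B HEK293T cells carrying transfected A. oryzae uricase were incubated 15 or 60 min at 37° C with uric acid at Km (0.3 mM), pH 7.4 gluconate buffer.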

[1] = 15 minute assay, read-out: 15 min IC50
[2] = 60 minute assay, read-out: 60 min IC50

IC50 [1] [µM]	IC50 [2] [µM]	Structure (SMILES)
< 0.5	–	O=C(O)C1CC2(CCN(c3nc(CCC(F)(F)F)cnc3-c3cc(F)c4occc4c3)CC2)C1 [Compound 95, 7-(3-(7-fluorobenzofuran-5-yl)-6-(3,3,3-trifluoropropyl)pyrazin-2-yl)-7-azaspiro[3.5]nonane-2-carboxylic acid]
> 2	–	O=C(O)CC1CC2(C1)CN(c1nc(CCC(F)(F)F)cnc1-c1ccc3occc3c1)C2 [Compound 101, 2-(2-(3-(benzofuran-5-yl)-6-(3,3,3-trifluoropropyl)pyrazin-2-yl)-2-azaspiro[3.3]heptan-6-yl)acetic acid]
0.5 to 2	–	O=C(O)C1C[C@@H]2CN(c3nc(CCC(F)(F)F)cnc3-c3ccc4occc4c3)C[C@@H]2C1 (stereo partly drawn) [Compound 102, (3aR,6aS)-2-(3-(benzofuran-5-yl)-6-(3,3,3-trifluoropropyl)pyrazin-2-yl)octahydrocyclopenta[c]pyrrole-5-carboxylic acid]
> 2	–	CN(C)S(=O)(=O)N1CCN(c2nc(CCC(F)(F)F)cnc2-c2ccc3occc3c2)CC1 [Compound 106, 4-(3-(benzofuran-5-yl)-6-(3,3,3-trifluoropropyl)pyrazin-2-yl)-N,N-dimethylpiperazine-1-sulfonamide]
< 0.5	–	O=C(O)C1CCN(c2nc(CCCC(F)(F)F)cnc2-c2cnc3occc3c2)CC1 [Compound 116, 1-(3-(furo[2,3-b]pyridin-5-yl)-6-(4,4,4-trifluorobutyl)pyrazin-2-yl)piperidine-4-carboxylic acid]
< 0.5	–	O=C(O)C1CCN(c2nc(CCC(F)(F)F)cnc2-c2ccc3c(c2)CCO3)CC1 [Compound 119, 1-(3-(2,3-dihydrobenzofuran-5-yl)-6-(3,3,3-trifluoropropyl)pyrazin-2-yl)piperidine-4-carboxylic acid]
< 0.5	–	O=C(O)C1CCN(c2nc(CCC(F)(F)F)cnc2-c2ccc3c(c2)OCO3)CC1 [Compound 120, 1-(3-(benzo[d][1,3]dioxol-5-yl)-6-(3,3,3-trifluoropropyl)pyrazin-2-yl)piperidine-4-carboxylic acid]
< 0.5	–	O=C(O)C1CCN(c2nc(CCC(F)(F)F)cnc2-c2ccc3occc3c2)CC1 [Compound 121, 1-(3-(benzofuran-5-yl)-6-(3,3,3-trifluoropropyl)pyrazin-2-yl)piperidin-4-carboxylic acid]
< 0.5	–	O=C(O)C1CCN(c2nc(CCCC(F)(F)F)cnc2-c2ccc3occc3c2)CC1 [Compound 123, 1-(3-(benzofuran-5-yl)-6-(4,4,4-trifluorobutyl)pyrazin-2-yl)piperidine-4-carboxylic acid]
< 0.5	–	O=C(O)C1CCN(c2nc(CCC(F)(F)C(F)(F)F)cnc2-c2ccc3occc3c2)CC1 [Compound 124, 1-(3-(benzofuran-5-yl)-6-(3,3,4,4,4-pentafluorobutyl)pyrazin-2-yl)piperidine-4-carboxylic acid]

Continued, molecule first:

Structure (SMILES)	IC50 [1] [µM]	IC50 [2] [µM]
O=C(O)C1CCN(c2nc(CCCOC(F)(F)F)cnc2-c2cc(F)c3occc3c2)CC1 [Compound 96, 1-(3-(7-fluorobenzofuran-5-yl)-6-(3-(trifluoromethoxy)propyl)pyrazin-2-yl)piperidine-4-carboxylic acid]	–	< 0.5
COCCOc1ccc(-c2ncc(CCC(F)(F)F)nc2N2CCC(C(=O)O)CC2)cn1 [Compound 97, 1-(3-(6-(2-methoxyethoxy)pyridin-3-yl)-6-(3,3,3-trifluoropropyl)pyrazin-2-yl)piperidine-4-carboxylic acid]	> 2	–
COCCOc1ncc(-c2ncc(CCC(F)(F)F)nc2N2CCC(C(=O)O)CC2)cc1F [Compound 98, 1-(3-(5-fluoro-6-(2-methoxyethoxy)pyridin-3-yl)-6-(3,3,3-trifluoropropyl)pyrazin-2-yl)piperidine-4-carboxylic acid]	> 2	–
O=C(O)C1CCN(c2nc(CCC(F)(F)F)cnc2-c2ccc(OCCO)cc2)CC1 [Compound 99, 1-(3-(4-(2-hydroxyethoxy)phenyl)-6-(3,3,3-trifluoropropyl)pyrazin-2-yl)piperidine-4-carboxylic acid]	> 2	–
COc1ccc(-c2ncc(CCC(F)(F)F)nc2N2CCC(OCC(=O)O)CC2)cc1 [Compound 100, 2-((1-(3-(4-methoxyphenyl)-6-(3,3,3-trifluoropropyl)pyrazin-2-yl)piperidin-4-yl)oxy)acetic acid]	< 0.5	–
COCCNc1ccc(-c2ncc(CCC(F)(F)F)nc2N2CCC(C(=O)O)CC2)cc1 [Compound 103, 1-(3-(4-((2-methoxyethyl)amino)phenyl)-6-(3,3,3-trifluoropropyl)pyrazin-2-yl)piperidine-4-carboxylic acid]	0.5 to 2	–
COCCN(C)c1ccc(-c2ncc(CCC(F)(F)F)nc2N2CCC(C(=O)O)CC2)cc1 [Compound 104, 1-(3-(4-((2-methoxyethyl)(methyl)amino)phenyl)-6-(3,3,3-trifluoropropyl)pyrazin-2-yl)piperidine-4-carboxylic acid]	0.5 to 2	–
O=C(O)C1CCN(c2nc(CCC(F)(F)F)cnc2-c2ccncc2)CC1 [Compound 105, 1-(3-(pyridin-4-yl)-6-(3,3,3-trifluoropropyl)pyrazin-2-yl)piperidine-4-carboxylic acid]	> 2	–
O=C(O)C1CCN(c2nc(CCCC(F)(F)F)cnc2-c2ccc3c(c2)CCO3)CC1 [Compound 107, 1-(3-(2,3-dihydrobenzofuran-5-yl)-6-(4,4,4-trifluorobutyl)pyrazin-2-yl)piperidine-4-carboxylic acid]	< 0.5	–
O=C(O)C1CCN(c2nc(CCCC(F)(F)F)cnc2-c2ccc3c(c2)OCO3)CC1 [Compound 108, 1-(3-(benzo[d][1,3]dioxol-5-yl)-6-(4,4,4-Trifluorobutyl)Pyrazin-2-yl)piperidine-4-carboxylic acid]	< 0.5	< 0.5
O=C(O)C1CCN(c2nc(CCCC(F)(F)F)cnc2-c2ccc3ncoc3c2)CC1 [Compound 109, 1-(3-(benzo[d]oxazol-6-yl)-6-(4,4,4-trifluorobutyl)pyrazin-2-yl)piperidine-4-carboxylic acid]	0.5 to 2	–
O=C(O)C1CCN(c2nc(CCCC(F)(F)F)cnc2-c2ccc3c(c2)OCCO3)CC1 [Compound 110, 1-(3-(2,3-dihydrobenzo[b][1,4]dioxin-6-yl)-6-(4,4,4-trifluorobutyl)pyrazin-2-yl)piperidine-4-carboxylic acid]	0.5 to 2	–
O=C(O)C1CCN(c2nc(CCCC(F)(F)F)cnc2-c2ccc(OCC3CC3)cc2)CC1 [Compound 111, 1-(3-(4-(cyclopropylmethoxy)phenyl)-6-(4,4,4-trifluorobutyl)pyrazin-2-yl)piperidine-4-carboxylic acid]	< 0.5	–
O=C(O)C1CCN(c2nc(CCCC(F)(F)F)cnc2-c2ccc3c(c2)CCCO3)CC1 [Compound 112, 1-(3-(chroman-6-yl)-6-(4,4,4-trifluorobutyl)pyrazin-2-yl)piperidine-4-carboxylic acid]	0.5 to 2	–
O=C(O)C1CCN(c2nc(CCCC(F)(F)F)cnc2-c2ccc(OC3CC3)cc2)CC1 [Compound 113, 1-(3-(4-cyclopropoxyphenyl)-6-(4,4,4-trifluorobutyl)pyrazin-2-yl)piperidine-4-carboxylic acid]	0.5 to 2	–
O=C(O)C1CCN(c2nc(CCCC(F)(F)F)cnc2-c2ccc3c(c2)NCCO3)CC1 [Compound 114, 1-(3-(3,4-dihydro-2H-benzo[b][1,4]oxazin-6-y)-6-(4,4,4-trifluorobutyl)pyrazin-2-yl)piperidine-4-carboxylic acid]	0.5 to 2	–
O=C1COc2ccc(-c3ncc(CCCC(F)(F)F)nc3N3CCC(C(=O)O)CC3)cc2N1 [Compound 115, 1-(3-(3-oxo-3,4-dihydro-2H-benzo[b][1,4]oxazin-6-yl)-6-(4,4,4-trifluorobutyl)pyrazin-2-yl)piperidine-4-carboxylic acid]	> 2	–
COCCOCCOc1ccc(-c2ncc(CCCC(F)(F)F)nc2N2CCC(C(=O)O)CC2)cc1 [Compound 117, 1-(3-(4-(2-(2-methoxyethoxy)ethoxy)phenyl)-6-(4,4,4-trifluorobutyl)pyrazin-2-yl)piperidine-4-carboxylic acid]	0.5 to 2	–
COCCOCCCc1cnc(-c2cc(F)c3occc3c2)c(N2CCC(C(=O)O)CC2)n1 [Compound 118, 1-(3-(7-fluorobenzofuran-5-yl)-6-(3-(2-methoxyethoxy)propyl)pyrazin-2-yl)piperidine-4-carboxylic acid]	0.5 to 2	–
O=C(O)C1CCN(c2nc(CCC(F)(F)F)cnc2-c2ccc3c(c2)OCCO3)CC1 [Compound 122, 1-(3-(2,3-dihyrobenzo[b][1,4]dioxin-6-yl)-6-(3,3,3-trifluoropropyl)pyrazin-2-yl)piperidine-4-carboxylic acid]	0.5 to 2	–
COCCOc1ccc(-c2ncc(CCC(F)(F)C(F)(F)F)nc2N2CCC(C(=O)O)CC2)cc1 [Compound 125, 1-(3-(4-(2-methoxyethoxy)phenyl)-6-(3,3,4,4,4-pentafluorobutyl)pyrazin-2-yl)piperidine-4-carboxylic acid]	0.5 to 2	–

Source: patent US20250179032A1, “HETEROCYCLIC INHIBITORS OF GLUT9 FOR TREATMENT OF DISEASE” (HORIZON THERAPEUTICS IRELAND DAC, priority 2022, published 2025)
